From patent publication US8497266B2, “3-(3-pyrimidin-2-ylbenzyl)-1,2,4-triazolo[4,3-b]pyridazine derivatives as MET kinase inhibitors” (Merck Patent GmbH, priority 2008, dated 2013)

Assays:
Met kinase [1] = target: T1, Met kinase (Homo sapiens, UniProt P08581); assay: Met kinase inhibition (cell); type: cell-based
Target sequence in this assay (P08581 25-1390): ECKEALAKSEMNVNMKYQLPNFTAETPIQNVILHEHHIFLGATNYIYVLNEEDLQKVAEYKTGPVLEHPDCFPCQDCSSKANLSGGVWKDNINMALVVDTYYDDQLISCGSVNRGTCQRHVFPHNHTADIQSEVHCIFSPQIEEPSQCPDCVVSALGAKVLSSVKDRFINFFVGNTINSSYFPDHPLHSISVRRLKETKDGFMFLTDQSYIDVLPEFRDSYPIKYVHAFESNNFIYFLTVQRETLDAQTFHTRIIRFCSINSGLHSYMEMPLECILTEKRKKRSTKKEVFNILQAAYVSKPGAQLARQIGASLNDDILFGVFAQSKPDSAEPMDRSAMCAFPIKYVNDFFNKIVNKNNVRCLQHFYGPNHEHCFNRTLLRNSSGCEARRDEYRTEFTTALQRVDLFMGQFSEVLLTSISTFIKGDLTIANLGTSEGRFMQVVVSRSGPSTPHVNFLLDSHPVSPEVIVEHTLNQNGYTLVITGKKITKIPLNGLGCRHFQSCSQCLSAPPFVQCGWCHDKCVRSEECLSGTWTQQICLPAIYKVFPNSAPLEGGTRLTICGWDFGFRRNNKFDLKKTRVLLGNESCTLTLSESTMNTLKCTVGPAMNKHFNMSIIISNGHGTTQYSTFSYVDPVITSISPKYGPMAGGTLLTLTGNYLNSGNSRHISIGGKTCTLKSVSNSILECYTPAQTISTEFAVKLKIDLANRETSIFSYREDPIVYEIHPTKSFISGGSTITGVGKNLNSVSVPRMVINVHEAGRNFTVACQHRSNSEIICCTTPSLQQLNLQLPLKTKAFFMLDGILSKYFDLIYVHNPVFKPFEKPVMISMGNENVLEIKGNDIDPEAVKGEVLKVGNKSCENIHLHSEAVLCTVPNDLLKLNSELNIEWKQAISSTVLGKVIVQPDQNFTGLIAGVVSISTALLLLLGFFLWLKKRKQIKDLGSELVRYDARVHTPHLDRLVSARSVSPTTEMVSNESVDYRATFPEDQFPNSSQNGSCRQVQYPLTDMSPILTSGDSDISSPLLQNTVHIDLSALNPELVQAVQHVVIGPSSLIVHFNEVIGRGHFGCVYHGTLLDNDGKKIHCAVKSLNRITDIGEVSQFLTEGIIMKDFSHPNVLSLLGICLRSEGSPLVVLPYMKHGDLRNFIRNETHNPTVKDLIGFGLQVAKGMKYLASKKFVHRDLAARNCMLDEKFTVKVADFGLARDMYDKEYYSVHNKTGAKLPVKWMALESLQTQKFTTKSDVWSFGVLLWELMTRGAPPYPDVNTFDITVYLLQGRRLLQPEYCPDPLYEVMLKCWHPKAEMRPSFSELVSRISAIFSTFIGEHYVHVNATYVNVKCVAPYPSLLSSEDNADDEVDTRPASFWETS

Met kinase [2] = target: T1, Met kinase; assay: Met kinase inhibition, flashplate method (enzyme); type: biochemical; parameters: 6His (N); purchased Upstate 14-526; host or cells: Sf21 insect cells (S. frugiperda), baculovirus
Description: According to the manufacturer's data (Met, active, Upstate, catalogue No. 14-526), Met kinase is expressed for the purposes of protein production in insect cells (Sf21; S. frugiperda) and subsequent affinity-chromatographic purification as “N-terminal 6His-tagged” recombinant human protein in a baculovirus expression vector.
The test plates used are 96-well Flashplate® microtitre plates from Perkin Elmer (Cat. No. SMP200). The components of the kinase reaction described below are pipetted into the assay plate. The Met kinase and the substrate poly Ala-Glu-Lys-Tyr, (pAGLT, 6:2:5:1), are incubated for 3 hrs at room temperature with radioactively labelled ^33P-ATP in the presence and absence of test substances in a total volume of 100 μl. The reaction is terminated using 150 μl of a 60 mM EDTA solution. After incubation for a further 30 min at room temperature, the supernatants are filtered off with suction, and the wells are washed three times with 200 μl of 0.9% NaCl solution each time. The measurement of the bound radioactivity is carried out by means of a scintillation measuring instrument (Topcount NXT, Perkin-Elmer).
The full value used is the inhibitor-free kinase reaction. This should be approximately in the range 6000-9000 cpm. The pharmacological zero value used is staurosporin in a final concentration of 0.1 mM. The inhibitory values (IC50) are determined using the RS1_MTS program.
Kinase reaction conditions per well: • 30 μl of assay buffer • 10 μl of substance to be tested in assay buffer with 10% of DMSO • 10 μl of ATP (final concentration 1 μM cold, 0.35 μCi of ^33P-ATP) • 50 μl of Met kinase/substrate mixture in assay buffer; • (10 ng of enzyme/well, 50 ng of pAGLT/well) • Solutions used: • Assay buffer: • 50 mM HEPES • 3 mM magnesium chloride • 3 μM sodium orthovanadate • 3 mM manganese(II) chloride • 1 mM dithiothreitol (DTT) • pH=7.5 (to be set using sodium hydroxide) • Stop solution: • 60 mM Titriplex III (EDTA) • ^33P-ATP: Perkin-Elmer; • Met kinase: Upstate, Cat. No. 14-526, Stock 1 μg/10 μl; spec. activity 954 U/mg; • Poly-Ala-Glu-Lys-Tyr, 6:2:5:1: Sigma Cat. No. P1152 In-Vivo Tests
Target sequence in this assay (P08581 956-1390 limits assumed): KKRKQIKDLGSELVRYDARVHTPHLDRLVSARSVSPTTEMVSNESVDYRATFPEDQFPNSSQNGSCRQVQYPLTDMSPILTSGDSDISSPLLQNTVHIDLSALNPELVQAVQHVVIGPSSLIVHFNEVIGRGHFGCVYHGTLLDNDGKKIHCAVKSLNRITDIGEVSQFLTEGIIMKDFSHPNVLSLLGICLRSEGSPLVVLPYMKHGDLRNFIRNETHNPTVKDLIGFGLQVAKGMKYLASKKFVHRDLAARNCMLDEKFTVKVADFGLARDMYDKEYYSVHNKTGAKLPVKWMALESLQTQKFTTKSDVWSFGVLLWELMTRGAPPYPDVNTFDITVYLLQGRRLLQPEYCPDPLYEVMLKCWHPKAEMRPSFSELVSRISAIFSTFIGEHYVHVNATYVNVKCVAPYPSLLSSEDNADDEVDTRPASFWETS

Cn1cc(-c2ccc3nnc(Cc4cccc(-c5ncc(Br)cn5)c4)n3n2)cn1 [Compound A1, 3-[3-(5-bromopyrimidin-2-yl)benzyl]-6-(1-methyl-1H-pyrazol-4-yl)-1,2,4-triazolo[4,3-b]pyridazine]
IC50 (Met kinase [1]): 0.001 to 0.1 µM
IC50 (Met kinase [2]): 0.001 to 0.1 µM

Cn1cc(-c2ccc3nnc(C(F)(F)c4cccc(-c5ncc(Br)cn5)c4)n3n2)cn1 [Compound A3, 3-{[3-(5-bromopyrimidin-2-yl)phenyl]difluoromethyl}-6-(1-methyl-1H-pyrazol-4-yl)-1,2,4-triazolo[4,3-b]pyridazine]
IC50 (Met kinase [1]): 0.001 to 0.1 µM
IC50 (Met kinase [2]): 0.001 to 0.1 µM

N#Cc1cccc(-c2ccc3nnc(C(F)(F)c4cccc(-c5ncc(Br)cn5)c4)n3n2)c1 [Compound A3a, 3-(3-{[3-(5-bromopyrimidin-2-yl)phenyl]difluoromethyl}-1,2,4-triazolo[4,3-b]-pyridazin-6-yl)benzonitrile]
IC50 (Met kinase [1]): 0.001 to 0.1 µM
IC50 (Met kinase [2]): 0.001 to 0.1 µM

Cn1cc(-c2ccc3nnc(C4(c5cccc(-c6ncc(Br)cn6)c5)CC4)n3n2)cn1 [Compound A4]
IC50 (Met kinase [1]): 0.1 to 10 µM
IC50 (Met kinase [2]): 0.001 to 0.1 µM

N#Cc1cccc(-c2ccc3nnc(Cc4cccc(-c5ncc(Br)cn5)c4)n3n2)c1 [Compound A5, 3-{3-[3-(5-bromopyrimidin-2-yl)benzyl]-1,2,4-triazolo[4,3-b]-pyridazin-6-yl}benzonitrile]
IC50 (Met kinase [1]): 0.001 to 0.1 µM
IC50 (Met kinase [2]): 0.001 to 0.1 µM

Cc1ccc2nnc(Cc3cccc(-c4ncc(Br)cn4)c3)n2n1 [Compound A6]
IC50 (Met kinase [1]): 0.1 to 10 µM
IC50 (Met kinase [2]): 0.001 to 0.1 µM

Cn1cc(-c2ccc3nnc(C(F)(F)c4cccc(-c5ncc(-c6cnn(CCN7CCCC7)c6)cn5)c4)n3n2)cn1 [Compound A7]
IC50 (Met kinase [1]): 0.001 to 0.1 µM
IC50 (Met kinase [2]): 0.001 to 0.1 µM

Cn1cc(-c2ccc3nnc(C4(c5cccc(-c6ncc(-c7cnn(CCN8CCCC8)c7)cn6)c5)CC4)n3n2)cn1 [Compound A8]
IC50 (Met kinase [1]): 0.001 to 0.1 µM
IC50 (Met kinase [2]): 0.001 to 0.1 µM

Cc1ccc2nnc(Cc3cccc(-c4ncc(-c5cnn(CCN6CCCC6)c5)cn4)c3)n2n1 [Compound A9]
IC50 (Met kinase [1]): 0.001 to 0.1 µM
IC50 (Met kinase [2]): 0.001 to 0.1 µM

CN1CCN(c2cnc(-c3cccc(Cc4nnc5ccc(-c6cnn(C)c6)nn45)c3)nc2)CC1 [Compound A11, 3-{3-[5-(4-methylpiperazin-1-yl)pyrimidin-2-yl]benzyl}-6-(1-methyl-1H-pyrazol-4-yl)-1,2,4-triazolo[4,3-b]pyridazine]
IC50 (Met kinase [1]): 0.001 to 0.1 µM
IC50 (Met kinase [2]): 0.001 to 0.1 µM

Cn1cc(-c2ccc3nnc(C(F)(F)c4cccc(-c5ncc(OCCN6CCOCC6)cn5)c4)n3n2)cn1 [Compound A12, 3-(difluoro-{3-[5-(2-morpholin-4-ylethoxy)pyrimidin-2-yl]-phenyl}methyl)-6-(1-methyl-1H-pyrazol-4-yl)-1,2,4-triazolo[4,3-b]pyridazine]
IC50 (Met kinase [1]): 0.001 to 0.1 µM
IC50 (Met kinase [2]): 0.001 to 0.1 µM

CN1CCN(c2cnc(-c3cccc(C(F)(F)c4nnc5ccc(-c6cnn(C)c6)nn45)c3)nc2)CC1 [Compound A16]
IC50 (Met kinase [1]): 0.001 to 0.1 µM
IC50 (Met kinase [2]): 0.001 to 0.1 µM

Cc1ccc2nnc(Cc3cccc(-c4ncc(N5CCN(C)CC5)cn4)c3)n2n1 [Compound A17]
IC50 (Met kinase [1]): 0.001 to 0.1 µM
IC50 (Met kinase [2]): 0.001 to 0.1 µM

N#Cc1cccc(-c2ccc3nnc(C(F)(F)c4cccc(-c5ncc(-c6cnn(CCN7CCCC7)c6)cn5)c4)n3n2)c1 [Compound A19]
IC50 (Met kinase [1]): 0.001 to 0.1 µM
IC50 (Met kinase [2]): 0.001 to 0.1 µM

N#Cc1cccc(-c2ccc3nnc(Cc4cccc(-c5ncc(-c6cnn(CCN7CCCC7)c6)cn5)c4)n3n2)c1 [Compound A20]
IC50 (Met kinase [1]): 0.001 to 0.1 µM
IC50 (Met kinase [2]): 0.001 to 0.1 µM

Cc1ccc2nnc(C(F)(F)c3cccc(-c4ncc(-c5cnn(CCN6CCCC6)c5)cn4)c3)n2n1 [Compound A21]
IC50 (Met kinase [1]): 0.001 to 0.1 µM
IC50 (Met kinase [2]): 0.001 to 0.1 µM

CC(c1cccc(-c2ncc(-c3cnn(CCN4CCCC4)c3)cn2)c1)c1nnc2ccc(-c3cnn(C)c3)nn12 (stereo not drawn) [Compound A22]
IC50 (Met kinase [1]): 0.001 to 0.1 µM
IC50 (Met kinase [2]): 0.001 to 0.1 µM

CN1CCN(c2cnc(-c3cccc(C(F)(F)c4nnc5ccc(-c6cccc(C#N)c6)nn45)c3)nc2)CC1 [Compound A23]
IC50 (Met kinase [1]): 0.001 to 0.1 µM
IC50 (Met kinase [2]): 0.001 to 0.1 µM

N#Cc1cccc(-c2ccc3nnc(C(F)(F)c4cccc(-c5ncc(N6CCNCC6)cn5)c4)n3n2)c1 [Compound A24]
IC50 (Met kinase [1]): 0.001 to 0.1 µM
IC50 (Met kinase [2]): 0.001 to 0.1 µM

Cc1ccc2nnc(C(F)(F)c3cccc(-c4ncc(N5CCN(C)CC5)cn4)c3)n2n1 [Compound A25]
IC50 (Met kinase [1]): 0.001 to 0.1 µM
IC50 (Met kinase [2]): 0.001 to 0.1 µM

Cn1cc(-c2ccc3nnc(C(F)(F)c4cccc(-c5ncccn5)c4)n3n2)cn1 [Compound A26, 3-[difluoro-(3-pyrimidin-2-ylphenyl)methyl]-6-(1-methyl-1H-pyrazol-4-yl)-1,2,4-triazolo[4,3-b]pyridazine]
IC50 (Met kinase [1]): 0.001 to 0.1 µM
IC50 (Met kinase [2]): 0.001 to 0.1 µM

Cc1ccc2nnc(C(F)(F)c3cccc(-c4ncc(Br)cn4)c3)n2n1 [Compound A27, 3-{[3-(5-bromopyrimidin-2-yl)phenyl]difluoromethyl}-6-methyl-1,2,4-triazolo[4,3-b]pyridazine]
IC50 (Met kinase [1]): 0.001 to 0.1 µM
IC50 (Met kinase [2]): 0.001 to 0.1 µM

Cc1ccc2nnc(C(F)(F)c3cccc(-c4ncc(OCC5CCN(C)CC5)cn4)c3)n2n1 [Compound A41, 3-(difluoro-{3-[5-(1-methylpiperidin-4-ylmethoxy)pyrimidin-2-yl]phenyl}methyl)-6-methyl-1,2,4-triazolo[4,3-b]pyridazine]
IC50 (Met kinase [1]): 0.001 to 0.1 µM
IC50 (Met kinase [2]): 0.001 to 0.1 µM

OCCn1cc(-c2ccc3nnc(Cc4cccc(-c5ncc(Br)cn5)c4)n3n2)cn1 [Compound A43, 2-(4-{3-[3-(5-bromopyrimidin-2-yl)benzyl]-1,2,4-triazolo-[4,3-b]pyridazin-6-yl}pyrazol-1-yl)ethanol]
IC50 (Met kinase [1]): 0.001 to 0.1 µM
IC50 (Met kinase [2]): 0.001 to 0.1 µM
